Measurements reported in ChEMBL document CHEMBL4004823, “Discovery of Potent and Selective Inhibitors for G9a-Like Protein (GLP) Lysine Methyltransferase” (J Med Chem, 2017).

target: T1, Histone-lysine N-methyltransferase EHMT1 (Homo sapiens, UniProt Q9H9B1); experiment: (§1) Inhibition of recombinant GLP catalytic SET domain (982 to 1266 residues) (unknown origin) expressed in Escherichia coli BL21 (DE3) codon plus RIL assessed as inhibition of methylation activity using biotin-labeled H3 (1 to 25 residues) as substrate and [3H]-SAM after 2 hrs by scintillation proximity assay
T1 sequence (Q9H9B1 whole entry): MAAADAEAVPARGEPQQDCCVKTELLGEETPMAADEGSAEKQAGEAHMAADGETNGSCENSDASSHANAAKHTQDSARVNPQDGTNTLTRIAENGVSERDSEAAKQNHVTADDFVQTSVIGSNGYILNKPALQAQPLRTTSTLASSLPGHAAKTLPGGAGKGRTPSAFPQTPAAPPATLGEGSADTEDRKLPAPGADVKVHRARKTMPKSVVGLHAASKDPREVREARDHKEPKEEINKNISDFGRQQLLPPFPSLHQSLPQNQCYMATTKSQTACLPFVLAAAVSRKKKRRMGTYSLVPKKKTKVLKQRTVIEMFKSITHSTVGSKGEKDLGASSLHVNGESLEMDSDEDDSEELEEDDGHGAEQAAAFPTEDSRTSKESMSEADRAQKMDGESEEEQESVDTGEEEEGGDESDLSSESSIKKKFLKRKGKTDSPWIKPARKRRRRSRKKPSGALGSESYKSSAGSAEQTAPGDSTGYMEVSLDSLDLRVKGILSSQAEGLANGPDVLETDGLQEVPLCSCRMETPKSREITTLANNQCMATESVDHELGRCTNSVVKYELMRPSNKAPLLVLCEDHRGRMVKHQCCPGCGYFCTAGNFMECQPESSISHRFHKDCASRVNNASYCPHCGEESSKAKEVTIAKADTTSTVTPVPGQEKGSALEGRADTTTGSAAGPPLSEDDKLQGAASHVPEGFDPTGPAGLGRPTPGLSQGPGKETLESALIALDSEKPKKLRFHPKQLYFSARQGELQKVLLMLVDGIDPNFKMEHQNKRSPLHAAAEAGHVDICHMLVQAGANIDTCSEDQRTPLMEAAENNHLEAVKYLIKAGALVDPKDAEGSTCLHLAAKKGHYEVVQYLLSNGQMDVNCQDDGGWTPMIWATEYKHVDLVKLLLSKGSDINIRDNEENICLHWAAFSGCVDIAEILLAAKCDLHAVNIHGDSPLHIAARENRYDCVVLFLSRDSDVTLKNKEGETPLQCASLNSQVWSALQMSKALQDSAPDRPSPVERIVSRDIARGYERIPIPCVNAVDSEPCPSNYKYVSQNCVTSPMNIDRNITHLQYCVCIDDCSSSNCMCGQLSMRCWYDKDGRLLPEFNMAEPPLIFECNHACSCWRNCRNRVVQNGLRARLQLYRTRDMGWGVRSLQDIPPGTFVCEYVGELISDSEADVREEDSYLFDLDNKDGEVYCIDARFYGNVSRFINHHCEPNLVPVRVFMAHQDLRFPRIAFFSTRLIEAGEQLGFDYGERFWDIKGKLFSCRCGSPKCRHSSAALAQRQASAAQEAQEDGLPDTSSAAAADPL

Row | SMILES | IC50 [nM]
1 | COc1cc2nc(C3CCOCC3)nc(NC3CCN(C)CC3)c2cc1OC | 341
2 | CCOc1cc2nc(N3CCOCC3)nc(NC3CCN(C)CC3)c2cc1OC | > 1000
3 | CCCCCCNc1nc(NC2CCN(C)CC2)c2cc(OC)c(OC)cc2n1 | 7
4 | CCCCNc1nc(NC2CCN(C)CC2)c2cc(OC)c(OC)cc2n1 | 35
5 | COc1cc2nc(N3CCOCC3)nc(NC3CCN(C)CC3)c2cc1C | 808
6 | COc1cc2nc(C3CCCCC3)nc(NC3CCN(C)CC3)c2cc1OC | 34
7 | COc1cc2nc(N3CCC(F)(F)CC3)nc(NC3CCN(C)CC3)c2cc1OC | 97
8 | COc1cc2nc(N3CCOCC3)nc(NC3CCN(C)CC3)c2cc1OC(C)C | > 5000
9 | CCCCN(C)c1nc(NC2CCN(C)CC2)c2cc(OC)c(OC)cc2n1 | 35
10 | CCCCCCCNc1nc(NC2CCN(C)CC2)c2cc(OC)c(OC)cc2n1 | 44
11 | CCCCCCN(C)c1nc(NC2CCN(C)CC2)c2cc(OC)c(OC)cc2n1 | 18
12 | COc1cc2nc(N3CCCN(C)CC3)nc(NC3CCN(C)CC3)c2cc1OC | 4
13 | COc1cc2nc(N3CCOCC3)nc(NC3CCN(C)CC3)c2cc1F | 1230
14 | COc1cc2nc(N3CCOCC3)nc(NC3CCN(C(C)C)CC3)c2cc1OC | 15
15 | COc1cc2c(NC3CCN(C)CC3)nc(N3CCOCC3)nc2cc1OC(C)C | > 5000
16 | COc1cc2nc(N3CCOCC3)nc(NC3CCN(C)CC3)c2cc1OC | 13
17 | COc1cc2nc(N3CCCC3)nc(NC3CCN(C)CC3)c2cc1OC | 12
18 | CCCCCN(C)c1nc(NC2CCN(C)CC2)c2cc(OC)c(OC)cc2n1 | 28
19 | CCN1CCC(Nc2nc(N3CCOCC3)nc3cc(OC)c(OC)cc23)CC1 | 26
20 | COc1cc2nc(N3CCCCCC3)nc(NC3CCN(C)CC3)c2cc1OC | 16
21 | CCCCCNc1nc(NC2CCN(C)CC2)c2cc(OC)c(OC)cc2n1 | 63
22 | COc1cc2c(NC3CCN(C)CC3)nc(N3CCOCC3)nc2cc1F | > 5000
23 | COc1cc2nc(N3CCCCC3)nc(NC3CCN(C)CC3)c2cc1OC | 12
24 | COc1cc2nc(N3CCOCC3)nc(NC3CCN(C4CC4)CC3)c2cc1OC | 12
25 | COc1cc2c(NC3CCN(C)CC3)nc(N3CCOCC3)nc2cc1C | 29
26 | CCCN1CCC(Nc2nc(N3CCOCC3)nc3cc(OC)c(OC)cc23)CC1 | 11
27 | CCOc1cc2c(NC3CCN(C)CC3)nc(N3CCOCC3)nc2cc1OC | > 5000

target: T2, Histone-lysine N-methyltransferase EHMT2 (Homo sapiens, UniProt Q96KQ7); experiment: Binding affinity to recombinant G9a catalytic SET domain (913 to 1193 residues) (unknown origin) expressed in Escherichia coli BL21 (DE3) codon plus RIL in presence of SAM by isothermal titration calorimetry
T2 sequence (Q96KQ7 whole entry): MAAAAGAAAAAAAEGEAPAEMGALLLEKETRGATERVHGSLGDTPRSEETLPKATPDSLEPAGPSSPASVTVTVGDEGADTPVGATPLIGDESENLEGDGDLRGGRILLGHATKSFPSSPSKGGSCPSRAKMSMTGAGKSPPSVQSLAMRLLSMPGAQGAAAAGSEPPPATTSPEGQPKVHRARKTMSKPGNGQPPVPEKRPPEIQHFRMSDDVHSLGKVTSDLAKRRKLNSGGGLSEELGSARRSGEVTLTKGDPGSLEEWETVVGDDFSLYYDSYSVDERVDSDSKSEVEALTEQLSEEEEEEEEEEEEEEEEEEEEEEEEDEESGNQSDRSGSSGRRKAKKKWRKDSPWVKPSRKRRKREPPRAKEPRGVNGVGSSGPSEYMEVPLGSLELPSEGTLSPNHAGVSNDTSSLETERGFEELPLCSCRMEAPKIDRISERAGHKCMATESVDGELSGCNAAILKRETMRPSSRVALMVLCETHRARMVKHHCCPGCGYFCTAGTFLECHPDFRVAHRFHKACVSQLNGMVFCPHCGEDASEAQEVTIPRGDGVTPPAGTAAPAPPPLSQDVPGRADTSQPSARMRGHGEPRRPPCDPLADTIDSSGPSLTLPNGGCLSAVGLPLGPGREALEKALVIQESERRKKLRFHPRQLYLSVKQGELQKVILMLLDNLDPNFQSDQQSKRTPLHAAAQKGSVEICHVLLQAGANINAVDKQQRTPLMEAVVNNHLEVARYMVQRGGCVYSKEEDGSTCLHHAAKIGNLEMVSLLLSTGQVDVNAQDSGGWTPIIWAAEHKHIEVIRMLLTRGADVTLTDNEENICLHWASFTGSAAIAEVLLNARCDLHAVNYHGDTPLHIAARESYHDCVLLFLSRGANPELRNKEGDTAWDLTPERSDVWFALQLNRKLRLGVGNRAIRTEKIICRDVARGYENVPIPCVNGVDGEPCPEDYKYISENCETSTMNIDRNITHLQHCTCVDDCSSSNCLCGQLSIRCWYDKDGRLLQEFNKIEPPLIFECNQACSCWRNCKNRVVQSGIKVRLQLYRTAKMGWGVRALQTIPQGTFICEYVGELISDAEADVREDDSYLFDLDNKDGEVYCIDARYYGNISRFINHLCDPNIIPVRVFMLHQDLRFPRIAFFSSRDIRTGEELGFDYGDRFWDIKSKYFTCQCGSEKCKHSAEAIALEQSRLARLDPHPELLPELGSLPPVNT

Row | SMILES | Kd [nM]
28 | CCCCCCNc1nc(NC2CCN(C)CC2)c2cc(OC)c(OC)cc2n1 | 610
29 | COc1cc2nc(N3CCOCC3)nc(NC3CCN(C)CC3)c2cc1OC | 445

target: T2, Histone-lysine N-methyltransferase EHMT2; experiment: as §1, with “G9a” for “GLP”, “(913” for “(982”, “1193” for “1266”

Row | SMILES | IC50 [nM]
30 | COc1cc2nc(C3CCOCC3)nc(NC3CCN(C)CC3)c2cc1OC | 1910
31 | CCOc1cc2nc(N3CCOCC3)nc(NC3CCN(C)CC3)c2cc1OC | > 5000
32 | CCCCCCNc1nc(NC2CCN(C)CC2)c2cc(OC)c(OC)cc2n1 | 992
33 | CCCCNc1nc(NC2CCN(C)CC2)c2cc(OC)c(OC)cc2n1 | 436
34 | COc1cc2nc(N3CCOCC3)nc(NC3CCN(C)CC3)c2cc1C | 4070
35 | COc1cc2nc(C3CCCCC3)nc(NC3CCN(C)CC3)c2cc1OC | 438
36 | COc1cc2nc(N3CCC(F)(F)CC3)nc(NC3CCN(C)CC3)c2cc1OC | 1060
37 | COc1cc2nc(N3CCOCC3)nc(NC3CCN(C)CC3)c2cc1OC(C)C | > 5000
38 | CCCCN(C)c1nc(NC2CCN(C)CC2)c2cc(OC)c(OC)cc2n1 | 407
39 | CCCCCCCNc1nc(NC2CCN(C)CC2)c2cc(OC)c(OC)cc2n1 | 756
40 | CCCCCCN(C)c1nc(NC2CCN(C)CC2)c2cc(OC)c(OC)cc2n1 | 311
41 | COc1cc2nc(N3CCOCC3)nc(NC3CCN(C)CC3)c2cc1F | 3690
42 | COc1cc2nc(N3CCOCC3)nc(NC3CCN(C(C)C)CC3)c2cc1OC | 262
43 | COc1cc2c(NC3CCN(C)CC3)nc(N3CCOCC3)nc2cc1OC(C)C | > 5000
44 | COc1cc2nc(N3CCOCC3)nc(NC3CCN(C)CC3)c2cc1OC | 440
45 | COc1cc2nc(N3CCCC3)nc(NC3CCN(C)CC3)c2cc1OC | 313
46 | CCCCCN(C)c1nc(NC2CCN(C)CC2)c2cc(OC)c(OC)cc2n1 | 306
47 | CCN1CCC(Nc2nc(N3CCOCC3)nc3cc(OC)c(OC)cc23)CC1 | 323
48 | COc1cc2nc(N3CCCCCC3)nc(NC3CCN(C)CC3)c2cc1OC | 190
49 | CCCCCNc1nc(NC2CCN(C)CC2)c2cc(OC)c(OC)cc2n1 | 341
50 | COc1cc2c(NC3CCN(C)CC3)nc(N3CCOCC3)nc2cc1F | > 5000
51 | COc1cc2nc(N3CCCCC3)nc(NC3CCN(C)CC3)c2cc1OC | 31
52 | COc1cc2nc(N3CCOCC3)nc(NC3CCN(C4CC4)CC3)c2cc1OC | 313
53 | COc1cc2c(NC3CCN(C)CC3)nc(N3CCOCC3)nc2cc1C | 1150
54 | CCCN1CCC(Nc2nc(N3CCOCC3)nc3cc(OC)c(OC)cc23)CC1 | 224
55 | CCOc1cc2c(NC3CCN(C)CC3)nc(N3CCOCC3)nc2cc1OC | > 5000

target: T1, Histone-lysine N-methyltransferase EHMT1; experiment: Binding affinity to recombinant GLP catalytic SET domain (982 to 1266 residues) (unknown origin) expressed in Escherichia coli BL21 (DE3) codon plus RIL in presence of SAM by isothermal titration calorimetry

Row | SMILES | Kd [nM]
56 | CCCCCCNc1nc(NC2CCN(C)CC2)c2cc(OC)c(OC)cc2n1 | 46
57 | COc1cc2nc(N3CCOCC3)nc(NC3CCN(C)CC3)c2cc1OC | 40
